In EPA's ToxValDB 9.5 (doi:10.2903/j.efsa.2009.181r):
Converted amounts (≈) assume the structure as drawn.

How the values were obtained:
Daphnia magna = details: chronic/long-term; duration: 21 days; reproduction
Avena sativa = details: chronic/long-term; body weight
Pardosa sp. = details: acute; duration: 7 days; mortality
Anas platyrhynchos = details: short-term; oral; feed; mortality
Colinus virginianus = details: mortality
Apis mellifera = details: acute; dermal; mortality
Bibionidae = details: chronic/long-term; duration: 28 days; seedling emergence

CC(C)N(C(=O)SCC(Cl)=C(Cl)Cl)C(C)C [Tri-allate]
NOEC (Daphnia magna): 0.013 mg/L | NOEC (Avena sativa): 11 g/ha | LEL (Pardosa sp.): 2280 g/ha | LC50 (Anas platyrhynchos): > 1210 mg/kg-day | LD50 (Colinus virginianus; acute, oral): 1560 mg/kg-day | NOEC (Colinus virginianus; reproduction developmental): 54 mg/kg-day | LD50 (Apis mellifera): > 100 µg/piece | LC50 (Oncorhynchus mykiss; acute, duration: 96 hours, mortality): 0.95 mg/L (≈ 3.12 µM) | NOEC (Oncorhynchus mykiss; chronic/long-term, duration: 88 days, growth): 0.038 mg/L | NOEC (Bibionidae): 0.583 mg/L | NOAEL (Rattus norvegicus; acute, oral, clinical signs): 60 mg/kg-day | LD50 (Rattus norvegicus; acute, oral, mortality): 1100 mg/kg | NOEL (Rattus norvegicus; chronic, M, mortality): 9 mg/kg-day | NOAEL (Rattus norvegicus; chronic, duration: 2 years, oral, diet, mortality): 2.5 mg/kg-day | NOAEL (Rattus norvegicus; subchronic, duration: 90 days, histopathology: nonneoplastic): 6.4 mg/kg-day | LC50 (Tagia sp.; acute, duration: 14 days, mortality): 549 mg/kg | NOEC (Tagia sp.; chronic/long-term, duration: 56 days, reproduction): 27.2 mg/kg
